One test relates to KPC-Luc tumors. As to the kind of experiment: subcutaneous KPC / KPC-Luc pancreatic tumors in C57BL/6 mice. Format: in vivo, mouse. The protocol:
Shown are scrambled peptide plus IgG, Ant308 plus anti-PD1, scrambled peptide plus anti-PD-1, Ant308 plus IgG, and Ant308 plus AMD3100. Tumor volume was measured with calipers. ‘Star’ (*) indicates mice euthanized either due to large tumor volume (>500 mm^3) or ulceration of the skin overlying the tumor.
This decease in tumor volume was more pronounced in combination with anti-PD1 treatment. We also examined the effect of ANT308 in combination with Iso IgG or anti-PD1 antibody had on tumor volume as measured as a percent change in volume (FIG. 8A) and in measured volume (FIG. 8B). […] Investigating this effect more completely, we observed that combination treatment with both anti-PD1 and VIP-R antagonist was able to slow tumor growth relative to control mice treated with scrambled peptide and iso-type matched IgG, with the combination showing a statistically significant improvement in the rate of tumor growth (FIG. 8D). […]
In vivo efficacy studies. […] In the KPC-Luc models, the tumor growth rate was plotted using the tumor flux measurements quantified using IVIS bioluminescent imaging. […] In experiments with subcutaneous tumors, Vernier calipers were used to measure the tumor dimensions and the tumor volume was calculated using the formula: tumor volume=½(length×width×height).

The test system of another test is human T cells. The test is described as follows: activation of healthy-donor human T cells (anti-CD3), marker expression by flow cytometry. Format: cell-based. The note with it: 24 h post activation, 3 uM, vs scrambled peptide; FIG. 17d. On the procedure: Mean value from ‘Activated’ group shown with dotted line (---) for comparison. Responses from same healthy donors are shown with same color dots. Error bars are computed as the standard error of the mean (SEM) from 6 healthy donor samples.
This study adopted an ex-vivo system using human T cells isolated from healthy donors to screen for novel VIP-R antagonist peptides. Human T cells were cultured over 6 or 24 hours with activation in the presence or absence of peptides and were assessed for percent CD69 surface expression by flow cytometry to measure the state of T cell activation. The activity of the peptides was determined by percent increase in CD69 expression relative to no peptide control. […] We also observed that amongst the donors, most were classified as average responders, with measured value for CD69 expression within the error bars while two others had measured values outside the error bars, one sample reflecting a super-responder (purple dots) and one sample reflecting a slow-responder (green dots) (FIGS. 10A and 10B). […]
Human T cell activation and expansion. […] Cells were counted using Trypan blue dye and phenotyped via flow cytometry on day 9. […]
For orientation: A flow cytometer gives signals particle by particle.

The next test concerns intraocular melanoma. The test is described as follows: liver metastases in intraocular melanoma mouse model. Format: in vivo.

As to KPRRPYTSDYTRLRKQMAVKKYLNLILN [ANT308], the “growth of tumors compared with control mice (scrambled peptide and isotype-matched IgG)” value with KPC-Luc tumors (FIG. 9) is “not statistically different”. The tumor volume entry with KPC-Luc tumors (day 22, 3 days after a 10-day course, FIG. 7) was “reduced tumor volume”. Further, the “CD69 expression in CD4 and CD8 human T cells” value in the test with human T cells is “significantly increased”. Besides, the “growth of liver metastases” value in the test with intraocular melanoma (3 weeks after tumor inoculation, N=6, FIG. 36) is recorded as “suppressed growth”. Moreover, in the test with intraocular melanoma (FIG. 38), the “size of intraocular melanoma” value is on record as “not affected”. Further, in the test with intraocular melanoma (N=10, FIG. 37), the “angiogenesis of liver metastases” value is on record as “inhibited angiogenesis”. Also, the “hepatic metastases in 3 weeks” value with intraocular melanoma (n=6, FIG. 34) is listed as “decreased”.

The values above are taken from patent publication US20240247048A1 (EMORY UNIVERSITY, priority 2021, published 2024).
